Values joined by “and” are separate entries in the source; they are usually repeats but may differ in a detail not shown here. Equal values may be shown once. Read-outs that look alike come from different tables or passages of the source.
Key:
Rat DHODH = Rat DHODH (Rattus norvegicus, UniProt Q63707); assay: Cell-free multi-species DHODH enzyme inhibition assay, rat; format: biochemical; settings: n=1
MOLM-13 AML cell line = assay: In vitro uridine rescue assay (MTS, Combenefit); format: cell-based, human; settings: MOLM-13, exogenous uridine, n=3
Description: In vitro analysis of the antagonistic activity of uridine to HOSU-53 efficacy on MOLM-13 cells was done using MTS proliferation assay with increasing concentrations of uridine, HOSU-53, or the combination. Three biological replicates were analyzed using Combenefit software with mathematical models for highest single agent ([48]).

primary AML samples = assay: MTS proliferation assay, primary AML samples; format: cell-based, human; parameters: MTS proliferation data value: unit not given here; settings: 96 h; for MTS proliferation data value: replicates; for IC50: Homo sapiens
Description: A total of 10,000–20,000 cells from different AML lines or 50,000–75,000 cells of primary AML blasts were treated in a 96-well plate for 72 hours or 96 hours at 37°C, 5% CO2. CellTiter 96 Aqueous MTS reagent (Promega) was added to cells followed by a 3-hour incubation at 37°C, 5% CO2. The absorbance was measured at 490 nm using DTX 880 plate reader, and the IC50 was calculated using GraphPad Prism.

[1] = MOLM-13 CDX multiple ascending dose study; format: in vivo; settings: male, mouse, in vivo, po; daily p.o., MOLM-13 CDX NCG mice; read-out: maximum tolerated dose (MTD), daily dose
Text: (§1) Male 8- to 12-week-old NCG mice (NOD-Prkdc^em26Cd52Il2rg^em26Cd22/NjuCrl, Charles River) were engrafted with 1 × 10^5 cells via tail vein i.v. injection. Four days after engraftment (day 1 of treatment), mice (n = 10/arm) were randomized to receive p.o. qd vehicle (40% HPβCD) or ascending doses of oral HOSU-53.

[2] = tested on: MOLM-13 disseminated CDX AML model; assay: MOLM-13 CDX multiple ascending dose study; format: in vivo
Text: as §1

[3] = tested on: MOLM-13 disseminated CDX AML model; assay: MOLM-13 CDX synergy with FLT3 inhibitor gilteritinib (treatment from day 10); format: in vivo, NCG mice
Text: Male 8- to 12-week-old NCG mice were engrafted with 1 × 10^5 cells via tail vein i.v. injection. At 10 days after engraftment (day 1 of treatment), mice (n = 10/arm) were randomized to receive p.o. qd vehicle (50/50 mix of 20% HPβCD and 0.5% methylcellulose + 0.2% Tween 80), […] treatment, day 79. Treatment was predetermined to stop on day 79, after which any remaining mice would be monitored until ERC.

[4] = tested on: primary AML patient sample; assay: Flow cytometry CD11b/CD14 differentiation, primary AML long-term culture; format: cell-based, human; settings: 7 days LTC
Description: Cells were thawed in 50% FBS RPMI and then cultured in StemSpan (StemCell Technologies) media supplemented with human FLT3L, SCF, GM-CSF, G-CSF, IL-3, IL-6, TPO, and EPO cytokines for 7 days (LTC).
After 72 hours or 7 days of treatment of DHODHi, cells were collected and washed with PBS, blocked with human Fc block (BioLegend), and stained with antibodies for 30 minutes on ice. Antibodies were washed off and cells resuspended in FACS buffer (2% FBS, 2 mM NaN3, Dulbecco’s PBS) for analysis using BD LSRFortessa or Cytek Aurora spectral flow cytometer. Live/dead exclusion was done using LIVE/DEAD Fixable Near-IR (Invitrogen). All antibodies were purchased from BioLegend except CD47, which was purchased from BD Biosciences: CD11b clone M1/70, CD38 clone HIT2, CD14 clone M5E2, CD47 clone B6H12, CD33 clone WM53, CD3 clone UCHT1, CD19 clone HIB19, and CD45 clone HI30.
Supplemental Figure S.2. […] A).
Flow cytometry analysis of viable primary AML patient samples (n=10) treated in vitro for seven days (long term culture, LTC). Live cells were measured using LIVE/DEAD™ Fixable Near-IR (NIR) gated on singlet cells. […] Images were taken using BioTek Cytation 5 Cell Imaging Multimode Reader at 20x magnification. […]

CYP 2C9 = CYP 2C9 (Homo sapiens, UniProt P11712); assay: CYP inhibition 2C9; format: in vitro ADME
Text: (§2) Supplement jciinsight-9-173646-s083.xlsx, sheet "Supplemental Table S.2." | column: HOSU-53

CYP 2C19 = CYP 2C19 (Homo sapiens, UniProt P33261); assay: CYP inhibition 2C19; format: in vitro ADME
Text: as §2

Protein binding, AAG = format: in vitro ADME; settings: 0.07% AAG
Text: as §2

Chain of CYP 2C9 (P11712 whole entry): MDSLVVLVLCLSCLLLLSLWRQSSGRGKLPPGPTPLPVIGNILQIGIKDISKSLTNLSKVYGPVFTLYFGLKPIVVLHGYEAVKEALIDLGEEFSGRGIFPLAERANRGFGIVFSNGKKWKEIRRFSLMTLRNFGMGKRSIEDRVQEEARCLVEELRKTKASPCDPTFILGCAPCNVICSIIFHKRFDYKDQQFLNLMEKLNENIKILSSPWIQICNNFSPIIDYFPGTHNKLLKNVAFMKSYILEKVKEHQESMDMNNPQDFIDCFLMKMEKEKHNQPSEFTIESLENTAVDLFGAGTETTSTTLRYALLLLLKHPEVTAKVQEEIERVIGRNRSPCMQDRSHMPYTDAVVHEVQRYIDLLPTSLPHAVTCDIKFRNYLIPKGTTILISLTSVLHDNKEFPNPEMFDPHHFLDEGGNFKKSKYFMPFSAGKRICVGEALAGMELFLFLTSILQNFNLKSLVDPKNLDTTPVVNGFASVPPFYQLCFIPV
Chain of Rat DHODH (Q63707 whole entry): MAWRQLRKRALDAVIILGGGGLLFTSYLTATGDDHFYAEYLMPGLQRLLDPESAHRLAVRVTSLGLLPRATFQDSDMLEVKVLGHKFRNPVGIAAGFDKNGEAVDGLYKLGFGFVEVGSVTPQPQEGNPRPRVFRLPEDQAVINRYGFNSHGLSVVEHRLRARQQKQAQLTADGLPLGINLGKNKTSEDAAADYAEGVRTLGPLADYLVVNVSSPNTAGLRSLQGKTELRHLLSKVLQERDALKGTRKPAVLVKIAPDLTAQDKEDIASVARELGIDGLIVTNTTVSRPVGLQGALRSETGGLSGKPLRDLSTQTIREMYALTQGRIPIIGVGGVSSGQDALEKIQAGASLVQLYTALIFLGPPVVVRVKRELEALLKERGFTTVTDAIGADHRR
Chain of CYP 2C19 (P33261 whole entry): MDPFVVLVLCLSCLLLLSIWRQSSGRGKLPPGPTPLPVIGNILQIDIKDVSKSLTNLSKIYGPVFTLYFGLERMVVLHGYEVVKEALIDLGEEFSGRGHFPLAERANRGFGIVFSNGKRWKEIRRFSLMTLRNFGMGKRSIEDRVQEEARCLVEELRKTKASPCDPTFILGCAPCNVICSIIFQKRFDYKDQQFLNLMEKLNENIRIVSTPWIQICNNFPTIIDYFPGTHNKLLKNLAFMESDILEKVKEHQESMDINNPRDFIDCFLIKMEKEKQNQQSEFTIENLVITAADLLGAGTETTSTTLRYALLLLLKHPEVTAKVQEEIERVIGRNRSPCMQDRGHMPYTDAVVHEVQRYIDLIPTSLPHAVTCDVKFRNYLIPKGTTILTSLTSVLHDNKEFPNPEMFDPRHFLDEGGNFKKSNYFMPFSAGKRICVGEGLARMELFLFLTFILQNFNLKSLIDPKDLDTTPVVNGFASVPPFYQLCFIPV

CCCCOc1cccc(-c2ccc(-c3cc(C(=O)O)c4cc(F)ccc4n3)cc2)c1 [HOSU-53]
IC50 (Rat DHODH): 7.65 nM
uridine concentration at which metabolic resistance to HOSU-53 activity emerges (MOLM-13 AML cell line): above 25 μM
MTS proliferation data value (primary AML samples; 0.25 µM, Pt.1): 18.4884 and 20.0581 and 18.3139
MTS proliferation data value (primary AML samples; 0.25 µM, Pt.2): 32.3851 (2×) and 33.2604
MTS proliferation data value (primary AML samples; 0.25 µM, Pt.3): 55.8692 and 53.1947
MTS proliferation data value (primary AML samples; 0.25 µM, Pt.4): 65.8976 and 67.7546 and 63.7029
MTS proliferation data value (primary AML samples; 0.25 µM, Pt.5): 79.2706 and 80.6142 and 76.9674
MTS proliferation data value (primary AML samples; 0.25 µM, Pt.6): 33.7613 and 67.7492 and 73.4139
MTS proliferation data value (primary AML samples; 0.25 µM, Pt.7): 62.3298 and 55.7489 and 55.295
MTS proliferation data value (primary AML samples; 0.25 µM, Pt.8): 107.765 and 102.823 and 101.765
MTS proliferation data value (primary AML samples; 0.5 µM, Pt.1): 16.3954 and 17.2674 and 16.2209
MTS proliferation data value (primary AML samples; 0.5 µM, Pt.2): 27.5711 and 28.884 and 28.2276
MTS proliferation data value (primary AML samples; 0.5 µM, Pt.3): 49.3314 and 49.0342 and 46.211
MTS proliferation data value (primary AML samples; 0.5 µM, Pt.4): 54.2487 and 57.2876 and 57.4564
MTS proliferation data value (primary AML samples; 0.5 µM, Pt.5): 73.1286 and 69.0979 and 69.2898
MTS proliferation data value (primary AML samples; 0.5 µM, Pt.6): 55.9668 and 65.2568 and 57.5529
MTS proliferation data value (primary AML samples; 0.5 µM, Pt.7): 44.4024 and 40.0908 and 37.1407
MTS proliferation data value (primary AML samples; 0.5 µM, Pt.8): 86.9412 and 90.8235 and 88.3529
MTS proliferation data value (primary AML samples; 0.75 µM, Pt.1): 15 and 14.4767 and 15.1744
MTS proliferation data value (primary AML samples; 0.75 µM, Pt.2): 23.4136 and 22.1007 and 24.5077
MTS proliferation data value (primary AML samples; 0.75 µM, Pt.3): 39.8217 and 43.685 and 41.9019
MTS proliferation data value (primary AML samples; 0.75 µM, Pt.4): 52.2229 (2×) and 53.7423
MTS proliferation data value (primary AML samples; 0.75 µM, Pt.5): 64.4914 and 65.8349 (2×)
MTS proliferation data value (primary AML samples; 0.75 µM, Pt.6): 26.5106 and 39.426 and 36.7069
MTS proliferation data value (primary AML samples; 0.75 µM, Pt.7): 37.1407 and 39.8638 and 33.2829
MTS proliferation data value (primary AML samples; 0.75 µM, Pt.8): 77.0588 (2×) and 79.1765
MTS proliferation data value (primary AML samples; 1 µM, Pt.1): 14.4767 and 15.5233 and 13.7791
MTS proliferation data value (primary AML samples; 1 µM, Pt.2): 21.663 (2×) and 22.9759
MTS proliferation data value (primary AML samples; 1 µM, Pt.3): 40.1189 and 38.633 and 39.5245
MTS proliferation data value (primary AML samples; 1 µM, Pt.4): 47.327 and 51.7164 and 51.5476
MTS proliferation data value (primary AML samples; 1 µM, Pt.5): 64.6833 and 63.5317 and 66.6027
MTS proliferation data value (primary AML samples; 1 µM, Pt.6): 19.0332 and 30.5891 and 31.9486
MTS proliferation data value (primary AML samples; 1 µM, Pt.7): 33.9637 and 32.6021 and 29.879
MTS proliferation data value (primary AML samples; 1 µM, Pt.8): 72.1176 and 72.8235 (2×)
MTS proliferation data value (primary AML samples; 5 µM, Pt.1): 14.3023
MTS proliferation data value (primary AML samples; 5 µM, Pt.4): 43.444 and 45.8075 and 44.1193
MTS proliferation data value (primary AML samples; 5 µM, Pt.8): 55.5294
IC50 (primary AML samples; n = 8 samples, 96-hour treatment, read-out: median IC50 in primary AML patient samples): 120 nM
IC50 (primary AML samples; read-out: IC50 [95% CI], Pt. 1, 96-hour treatment): 23 nM
IC50 (primary AML samples; read-out: IC50 [95% CI], Pt. 2, 96-hour treatment): 103 nM
IC50 (primary AML samples; read-out: IC50 [95% CI], Pt. 3, 96-hour treatment): 85 nM
IC50 (primary AML samples; read-out: IC50 [95% CI], Pt. 4, 96-hour treatment): 112 nM
IC50 (primary AML samples; read-out: IC50 [95% CI], Pt. 5, 96-hour treatment): 129 nM
IC50 (primary AML samples; read-out: IC50 [95% CI], Pt. 6, 96-hour treatment): 155 nM
IC50 (primary AML samples; read-out: IC50 [95% CI], Pt. 7, 96-hour treatment): 169 nM
IC50 (primary AML samples; read-out: IC50 [95% CI], Pt. 8, 96-hour treatment): 584 nM
MTD [1]: 10 to 20 mg/kg
survival advantage vs vehicle ([2]; 1 mg/kg daily p.o., P < 0.05): modest yet significant survival advantage
tolerability ([2]; 10 mg/kg daily p.o.): well tolerated
tolerability ([2]; 30 mg/kg daily p.o., after 13 days of treatment): dose-limiting weight loss
tolerability ([2]; 100 mg/kg daily p.o.): toxic
Survival, day at event (per animal) ([2]; 0.1 mpk qd p.o.): 18 days and 17 days and 16 days
Survival, day at event (per animal) ([2]; 1 mpk qd p.o.): 22 days and 25 days and 21 days and 23 days
Survival, day at event (per animal) ([2]; 10 mpk qd p.o.): 63 days and 62 days and 48 days and 58 days and 61 days and 32 days and 57 days
Survival, day at event (per animal) ([2]; 30 mpk qdx13, holiday, 20 mpk qd start day 18, flag 0 = censored): 63 days and 15 days and 65 days and 14 days and 71 days and 67 days and ≥ 74 days
Survival, day at event (per animal) ([2]; 100 mpk qdx6): 10 days and 9 days
median survival ([3]; 10 mg/kg HOSU-53 daily p.o.): 48 days
Survival, day of study at event (per animal) ([3]; 4 mpk HOSU-53 poqd): 40 days and 35 days and 44 days and 43 days and 37 days and 39 days
Survival, day of study at event (per animal) ([3]; 10 mpk HOSU-53 poqd): 54 days and 44 days and 43 days and 59 days and 58 days and 52 days
CD11b+CD14+ cells [4]: increased
IC50 (CYP 2C9): 1160 nM
IC50 (CYP 2C19): 28000 nM
fraction unbound (Protein binding, AAG): 0.015

— PMC11141866, “Pyrimidine depletion enhances targeted and immune therapy combinations in acute myeloid leukemia” (JCI Insight, 2024)
